According to patent US12473287B2, “Synthetic co-crystals of anhydrous guanine and process for preparing the same” (EcoCrystal Ltd., priority 2016, dated 2025):
“And” between values parts separate entries of the source, which are not always exact repeats. Equal entries are not always repeated.

Legend:
[1] = Dry storage stability at ambient conditions (FT-IR); format: physicochemical; details: stored dry at ambient conditions; FT-IR fresh vs 3 months old
From the text: FIG. 5 presents FT-IR spectra, showing fresh guanine monohydrate (top) vs 3 months old guanine monohydrate. Only small differences in the peak intensities are visible after 3 months. The typical signatures of structured water are still present (ν1, and ν3 stretching modes (broad peaks at 3420 and 3200 cm^−1) and ν2 bending mode (1596 cm^−1)).

[2] = in the reflected direction; known values; cited from earlier work

SMILES: Nc1nc2nc[nH]c2c(=O)[nH]1.O [guanine monohydrate]
- stability, solid to solid transformation [1]: stable for at least several months

SMILES: Nc1nc2nc[nH]c2c(=O)[nH]1 [Anhydrous guanine, guanine]
- refractive index n [2]: 1.83 and 1.81
